According to ChEMBL document CHEMBL4340516, “Synthesis and antitumor activity of novel steroidal imidazolium salt derivatives” (Eur J Med Chem, 2019):

Key:
[1] = system: HL-60; assay: Antiproliferative activity against human HL60 cells assessed as reduction in cell viability incubated for 48 hrs by MTS assay; assay type: functional, cell-based; conditions: HL-60, 48 h
[2] = system: SMMC-7721; assay: Antiproliferative activity against human SMMC7721 cells assessed as reduction in cell viability incubated for 48 hrs by MTS assay; assay type: functional, cell-based; conditions: SMMC-7721, 48 h
[3] = system: A549; assay: Antiproliferative activity against human A549 cells assessed as reduction in cell viability incubated for 48 hrs by MTS assay; assay type: functional, cell-based; conditions: A549, 48 h
[4] = system: SMMC-7721; assay: Potency index, ratio of DDP IC50 to compound IC50 for human SMMC7721 cells; assay type: functional
[5] = system: MCF7; assay: Antiproliferative activity against human MCF7 cells assessed as reduction in cell viability incubated for 48 hrs by MTS assay; assay type: functional, cell-based; conditions: MCF7, 48 h
[6] = system: SW480; assay: Antiproliferative activity against human SW480 cells assessed as reduction in cell viability incubated for 48 hrs by MTS assay; assay type: functional, cell-based; conditions: SW480, 48 h

| SMILES | IC50 [1] | IC50 [2] | IC50 [3] | Ratio IC50 [4] | IC50 [5] | IC50 [6] |
| --- | --- | --- | --- | --- | --- | --- |
| C[C@@H]1CC[C@@]2(OC1)O[C@H]1C[C@H]3[C@@H]4CC=C5C[C@H](n6c[n+](Cc7ccccc7Br)c7ccccc76)CC[C@]5(C)[C@H]4CC[C@]3(C)[C@H]1[C@@H]2C.[Br-] | 0.34 µM | 0.21 µM | 4.47 µM | 54 | 2.14 µM | 2.1 µM |
| C[C@@H]1CC[C@@]2(OC1)O[C@H]1C[C@H]3[C@@H]4CC=C5C[C@H](n6c[n+](Cc7ccc8ccccc8c7)c7ccccc76)CC[C@]5(C)[C@H]4CC[C@]3(C)[C@H]1[C@@H]2C | 1.02 µM | 0.88 µM | 1.25 µM | – | 2.31 µM | 1.8 µM |
| COc1ccc(C(=O)C[n+]2ccn([C@@H]3CC[C@@]4(C)C(=CC[C@H]5[C@@H]6CC[C@H]([C@H](C)CCCC(C)C)[C@@]6(C)CC[C@@H]54)C3)c2)cc1 | 6 µM | 2.9 µM | 13.2 µM | – | 5.25 µM | 4.87 µM |
| C[C@@H]1CC[C@@]2(OC1)O[C@H]1C[C@H]3[C@@H]4CC=C5C[C@H](n6cc[n+](CC(=O)c7cccc(Br)c7)c6)CC[C@]5(C)[C@H]4CC[C@]3(C)[C@H]1[C@@H]2C | 1.25 µM | 1.71 µM | 1.55 µM | – | 1.43 µM | 1.65 µM |
| COc1ccc(C(=O)C[n+]2ccn([C@H]3CC[C@@]4(C)C(=CC[C@H]5[C@@H]6CC[C@H]([C@H](C)CCCC(C)C)[C@@]6(C)CC[C@@H]54)C3)c2)cc1 | 7.97 µM | 1.52 µM | 8.75 µM | – | 8.71 µM | 10.7 µM |
| C[C@@H]1CC[C@@]2(OC1)O[C@H]1C[C@H]3[C@@H]4CC=C5C[C@H](n6cc[n+](CC(=O)c7ccc8ccccc8c7)c6)CC[C@]5(C)[C@H]4CC[C@]3(C)[C@H]1[C@@H]2C | 0.96 µM | 1.89 µM | 3.34 µM | – | 2.27 µM | 3.62 µM |
| CC(C)CCC[C@@H](C)[C@H]1CC[C@H]2[C@@H]3CC=C4C[C@@H](n5cc[n+](CC(=O)c6ccccc6)c5)CC[C@]4(C)[C@H]3CC[C@]12C | 7.73 µM | 1.42 µM | 8.1 µM | – | 8.84 µM | 6.56 µM |
| C[C@@H]1CC[C@@]2(OC1)O[C@H]1C[C@H]3[C@@H]4CC=C5C[C@@H](n6cc[n+](Cc7ccccc7Br)c6)CC[C@]5(C)[C@H]4CC[C@]3(C)[C@H]1[C@@H]2C | 0.92 µM | 2.27 µM | 2.99 µM | – | 1.88 µM | 5.37 µM |
| CC(=O)O[C@H]1CC[C@@]2(C)C(=CC[C@H]3[C@@H]4CC[C@H](n5cc[n+](CC(=O)c6ccccc6)c5)[C@@]4(C)CC[C@@H]32)C1 | 6.42 µM | 12 µM | > 20 µM | – | 9.07 µM | 11.1 µM |
| Cc1cc2c(cc1C)[n+](Cc1ccc3ccccc3c1)cn2[C@@H]1CC[C@@]2(C)C(=CC[C@H]3[C@@H]4C[C@@H]5O[C@]6(CC[C@@H](C)CO6)[C@@H](C)[C@@H]5[C@@]4(C)CC[C@@H]32)C1 | 0.42 µM | 0.59 µM | 5.12 µM | – | 1.9 µM | 1.6 µM |
| CC(C)CCC[C@@H](C)[C@H]1CC[C@H]2[C@@H]3CC=C4C[C@H](n5c[n+](Cc6ccccc6Br)c6ccccc65)CC[C@]4(C)[C@H]3CC[C@]12C | 4.47 µM | 1.56 µM | 7.31 µM | – | 8.97 µM | 10.6 µM |
| C[C@@H]1CC[C@@]2(OC1)O[C@H]1C[C@H]3[C@@H]4CC=C5C[C@H](n6cc[n+](CC(=O)c7ccccc7)c6)CC[C@]5(C)[C@H]4CC[C@]3(C)[C@H]1[C@@H]2C | 1.09 µM | 7.15 µM | 7.3 µM | – | 5.18 µM | 8.18 µM |
| C[C@@H]1CC[C@@]2(OC1)O[C@H]1C[C@H]3[C@@H]4C[C@H](n5cc[n+](Cc6ccc7ccccc7c6)c5)[C@]56C[C@H]5CC[C@]6(C)[C@H]4CC[C@]3(C)[C@H]1[C@@H]2C | 1.22 µM | 2.45 µM | 4.92 µM | – | 1.95 µM | 4.03 µM |
| C[C@]12CC[C@H]3[C@@H](CC=C4C[C@@H](O)CC[C@@]43C)[C@@H]1CC[C@@H]2n1cc[n+](Cc2ccccc2Br)c1 | 6.3 µM | 7.63 µM | > 20 µM | – | 9.61 µM | > 20 µM |
| C[C@]12CC[C@H](O)CC1=CC[C@@H]1[C@@H]2CC[C@]2(C)C(=O)CC[C@@H]12 [PRASTERONE] | > 20 µM | > 20 µM | > 20 µM | – | > 20 µM | > 20 µM |
| Cc1cc2nc[nH]c2cc1C [DIMEDAZOL] | > 20 µM | > 20 µM | > 20 µM | – | > 20 µM | > 20 µM |
| CC(C)CCC[C@@H](C)[C@H]1CC[C@H]2[C@@H]3CC=C4C[C@H](n5c[n+](CC(=O)c6ccccc6)c6ccccc65)CC[C@]4(C)[C@H]3CC[C@]12C | 0.88 µM | 1.65 µM | 7.51 µM | – | 7.18 µM | 10.2 µM |
